According to patent publication US10548910B2, “Amido-substituted pyridotriazine derivatives useful as HIV integrase inhibitors” (priority 2015, dated 2020):
Like-named read-outs stand apart in the source and are kept apart here.

Test system: HIV-1
Assay: HIV-1 infection assay (MT4-GFP cells, inhibition of reproductive ratio R0)
Format: cell-based
Protocol: Assessing Antiviral Potency Using An HIV-1 Infection Assay
HIV-1 replication was monitored using MT4-gag-GFP clone D3 (hereafter designate MT4-GFP), which are MT-4 cells modified to harbor a GFP reporter gene, the expression of which is dependent on the HIV-1 expressed proteins tat and rev. Productive infection of an MT4-GFP cell with HIV-1 results in GFP expression approximately 24 h post-infection.
MT4-GFP cells were maintained at 37° C./5% CO2/90% relative humidity in RPMI 1640 supplemented with 10% fetal bovine serum, 100 U/ml penicillin/streptomycin, and 400 μg/ml G418 to maintain the reporter gene. For infections, MT4-GFP cells were placed in the same medium lacking G418 and infected overnight with H9IIIB or NL4-3 virus at an approximate multiplicity of infection of 0.01 in the same incubation conditions. Cells were then washed and resuspended in either RPMI 1640 containing no serum at 1.6×10^5 cells/mL (serum free conditions), 10% normal human serum at 1.6×10^5 cells/mL (10% NHS conditions) or in 100% normal human serum at 2×10^5 cells/mL (100% NHS conditions). Compound plates were prepared by dispensing compounds taken up in DMSO into wells of 384 well poly D lysine-coated plates (0.2 μl/well) using an ECHO acoustic dispenser. Each compound was tested in a 10 point serial 3-fold dilution (typical final concentrations: 4.2 μM-0.21 nM). Controls included no inhibitor (DMSO only) and a combination of three antiviral agents (efavirenz, indinavir, and the integrase strand transfer inhibitor L-002254051 at final concentrations of 4 μM each). Cells were added (50 μL/well) to compound plates and the infected cells were maintained at 37° C./5% CO2/90% relative humidity.
Infected cells were quantified at two time points, ˜48 h and ˜72 h post-infection, by counting the number of green cells in each well using an Acumen eX3 scanner. The increase in the number of green cells over ˜24 h period gives the reproductive ratio, R0, which is typically 5-15 and has been shown experimentally to be in logarithmic phase (data not shown). Inhibition of R0 is calculated for each well, and IC50 value was determined using non-linear 4-parameter curve fitting.

[1] = MT4-GFP cells infected with H9IIIB or NL4-3 virus, 0% NHS (serum free conditions), read-out: VIKING IP (nM) with 0% NHS
[2] = MT4-GFP cells infected with H9IIIB or NL4-3 virus, 100% normal human serum, read-out: VIKING IP (nM) with 100% NHS
[3] = Human immunodeficiency virus 1, NL43, MT4-GFP cells infected with H9IIIB or NL4-3 virus, 0% NHS (serum free conditions), read-out: VIKING IP (nM) with 0% NHS
[4] = Human immunodeficiency virus 1, NL43, MT4-GFP cells infected with H9IIIB or NL4-3 virus, 100% normal human serum, read-out: VIKING IP (nM) with 100% NHS

## CCOP(=O)(OCC)[C@@H]1CCC2(C1)N(C)C(=O)c1c(O)c(=O)c(C(=O)NCc3ccc(F)cc3F)cn1N2C (single isomer, unassigned) [Compound 30]
[1]
  IC50: 13.7 nM
[2]
  IC50: 1050 nM

## CCOP(=O)(OCC)C1CCC2(C1)N(CC)C(=O)c1c(O)c(=O)c(C(=O)NCc3ccc(F)cc3F)cn1N2C (stereo not shown) [Compound 35]
[3]
  IC50: 9.4 nM
[4]
  IC50: 126 nM

## CCOP(=O)(OCC)[C@H]1CCC2(C1)N(C)C(=O)c1c(O)c(=O)c(C(=O)NCc3ccc(F)cc3F)cn1N2C (single isomer, unassigned) [Compound 24]
[3]
  IC50: 9.1 nM
[4]
  IC50: 4120 nM

## CCOP(=O)(OCC)[C@@H]1CCC2(C1)N(C)C(=O)c1c(O)c(=O)c(C(=O)NCc3ccc(F)cc3F)cn1N2C (single isomer, unassigned) [Compound 27]
[1]
  IC50: 5.6 nM
[2]
  IC50: 78.2 nM

## CN1C(=O)c2c(O)c(=O)c(C(=O)NCc3ccc(F)cc3F)cn2N(C)C12CC[C@H](P(=O)(O)O)C2 (single isomer, unassigned) [Compound 25]
[3]
  IC50: 190 nM
[2]
  IC50: 1070 nM

## CC(C)OC(=O)OCOP(=O)(OCOC(=O)OC(C)C)[C@@H]1CCC2(C1)N(C)C(=O)c1c(O)c(=O)c(C(=O)NCc3ccc(F)cc3F)cn1N2C (single isomer, unassigned) [Compound 32]
[1]
  IC50: 0.9 nM
[2]
  IC50: 7 nM

## CCN1C(=O)c2c(O)c(=O)c(C(=O)NCc3ccc(F)cc3F)cn2N(CCP(=O)(O)O)C12CCCC2 [Compound 34]
[3]
  IC50: 15.4 nM
[4]
  IC50: 2490 nM

## CN1C(=O)c2c(O)c(=O)c(C(=O)NCc3ccc(F)cc3F)cn2N(C)C12CC[C@@H](P(=O)(O)O)C2 (single isomer, unassigned) [Compound 31]
[1]
  IC50: 206 nM
[2]
  IC50: 1070 nM

## CC(C)OC(=O)OCOP(=O)(OCOC(=O)OC(C)C)[C@H]1CCC2(C1)N(C)C(=O)c1c(O)c(=O)c(C(=O)NCc3ccc(F)cc3F)cn1N2C (single isomer, unassigned) [Compound 26]
[1]
  IC50: 1 nM
[2]
  IC50: 35.9 nM

## CC(C)OC(=O)OCOP(=O)(OCOC(=O)OC(C)C)[C@H]1CCC2(C1)N(C)C(=O)c1c(O)c(=O)c(C(=O)NCc3ccc(F)cc3F)cn1N2C (single isomer, unassigned) [Compound 23]
[1]
  IC50: 0.28 nM
[2]
  IC50: 3.6 nM

## CCN1C(=O)c2c(O)c(=O)c(C(=O)NCc3ccc(F)cc3F)cn2N(C)C12CCC(P(=O)(OCOC(=O)OC(C)C)OCOC(=O)OC(C)C)C2 (stereo not shown) [Compound 37]
[3]
  IC50: 0.2 nM
[4]
  IC50: 2.8 nM

## CCN1C(=O)c2c(O)c(=O)c(C(=O)NCc3ccc(F)cc3F)cn2N(CCP(=O)(N[C@@H](C)C(=O)OC(C)C)Oc2ccccc2)C12CCCC2 (stereo partly shown) [Compound 9]
Human immunodeficiency virus 1, NL43, read-out: VIKING IP (nM) with 0% NHS
  IC50: 3.8 nM

## CC(C)OC(=O)OCOP(=O)(OCOC(=O)OC(C)C)[C@@H]1CCC2(C1)N(C)C(=O)c1c(O)c(=O)c(C(=O)NCc3ccc(F)cc3F)cn1N2C (single isomer, unassigned) [Compound 29]
[4]
  IC50: 4.8 nM
[1]
  IC50: 0.2 nM

## CC(C)OC(=O)OCOP(=O)(CCN1n2cc(C(=O)NCc3ccc(F)cc3F)c(=O)c(O)c2C(=O)N(C)C12CCCC2)OCOC(=O)OC(C)C [Compound 7]
[3]
  IC50: 0.2 nM
[4]
  IC50: 2.1 nM

## CCOP(=O)(CCN1n2cc(C(=O)NCc3ccc(F)cc3F)c(=O)c(O)c2C(=O)N(CC)C12CCCC2)OCC [Compound 33]
[3]
  IC50: 4.4 nM
[4]
  IC50: 163 nM

## CN1C(=O)c2c(O)c(=O)c(C(=O)NCc3ccc(F)cc3F)cn2N(C)C12CC[C@H](P(=O)(O)O)C2 (single isomer, unassigned) [Compound 22]
[1]
  IC50: 120 nM
[2]
  IC50: 340 nM

## CN1C(=O)c2c(O)c(=O)c(C(=O)NCc3ccc(F)cc3F)cn2N(CCP(=O)(O)O)C12CCCC2 [Compound 4]
[3]
  IC50: 32.2 nM
[4]
  IC50: 2750 nM

## CC(C)OC(=O)OCOP(=O)(O)CCN1n2cc(C(=O)NCc3ccc(F)cc3F)c(=O)c(O)c2C(=O)N(C)C12CCCC2 [Compound 8]
[3]
  IC50: 2.3 nM
[4]
  IC50: 660 nM

## CN1C(=O)c2c(O)c(=O)c(C(=O)NCc3ccc(F)cc3F)cn2N(C)C12CC[C@@H](P(=O)(O)O)C2 (single isomer, unassigned) [Compound 28]
[3]
  IC50: 221 nM
[2]
  IC50: 420 nM

## CCOP(=O)(OCC)[C@H]1CCC2(C1)N(C)C(=O)c1c(O)c(=O)c(C(=O)NCc3ccc(F)cc3F)cn1N2C (stereo partly shown) [Compound 21]
[3]
  IC50: 5.3 nM
[4]
  IC50: 32.7 nM

## CCN1C(=O)c2c(O)c(=O)c(C(=O)NCc3ccc(F)cc3F)cn2N(C)C12CCC(P(=O)(O)O)C2 (stereo not shown) [Compound 36]
[3]
  IC50: 187 nM
[4]
  IC50: 583 nM

## CCOP(=O)(CCN1n2cc(C(=O)NCc3ccc(F)cc3F)c(=O)c(O)c2C(=O)N(C)C12CCCC2)OCC [Compound 2]
[3]
  IC50: 2.8 nM
[4]
  IC50: 81.1 nM
